# Test results as given in ChEMBL document CHEMBL4842344, “Design, synthesis and biological activity evaluation of novel scopoletin-NO donor derivatives against MCF-7 human breast cancer in vitro and in vivo” (Eur J Med Chem, 2021).
# Calls of active or inactive are those of the source. The calls are words filed in the database; no cut-off is given here.
# Legend:
# MDA-MB-231 = assay: Antiproliferative activity against human MDA-MB-231 cells assessed as inhibition of cell growth measured after 48 hrs by MTT assay; type: functional, cell-based; conditions: MDA-MB-231, 48 h
# MCF-10A = assay: Cytotoxicity against human MCF-10A cells assessed as reduction in cell viability measured after 48 hrs by MTT assay; type: cell-based
# MCF7 [1] = assay: Antiproliferative activity against human MCF7 cells assessed as inhibition of cell growth measured after 48 hrs by MTT assay; type: functional, cell-based; conditions: MCF7, 48 h
# MCF7 [2] = assay: Inhibition of cell proliferation in human MCF7 cells assessed as increase in intracellular NO production at 25 uM measured after 2.5 hrs by nitric oxide assay; type: functional, cell-based
IC50 (MDA-MB-231),IC50 (MCF7 [1]),Compound,IC50 (MCF-10A),Activity (MCF7 [2])
550 nM,510 nM,COc1cccc2c1C(=O)c1c(O)c3c(c(O)c1C2=O)C[C@@](O)(C(=O)CO)C[C@@H]3O[C@H]1C[C@H](N)[C@H](O)[C@H](C)O1 [DOXORUBICIN],490 nM,–
> 25000 nM,> 25000 nM,COc1cc2ccc(=O)oc2cc1O [SCOPOLETIN],> 25000 nM,–
780 nM,560 nM,COc1ccc(CNC(=O)c2cc3cc(OC)c(OCCCOc4no[n+]([O-])c4S(=O)(=O)c4ccccc4)cc3oc2=O)cc1,5950 nM,Active
